Here are results for 3 compounds from ChEMBL document CHEMBL1687831 (Antimicrob Agents Chemother, 2011).

As usually defined, the Ki is a measure of affinity in units of concentration, obtained from inhibition or displacement.

A short description of assay [1]: Inhibition of beta-lactamase CTX-M-9 expressed in Escherichia coli BL21(DE3).
Assay [2] in a line: Inhibition of beta-lactamase TEM1 expressed in Escherichia coli JM109.
A short description of assay [3]: Inhibition of acinetobacter-derived cephalosporinase.
Assay [4] in a line: Inhibition of beta-lactamase AmpC expressed in Escherichia coli.
A short description of assay [5]: Inhibition of beta-lactamase SHV1.

Consider `CC(C)(O/N=C(\C(=O)NCB(O)O)c1csc(N)n1)C(=O)O` [CEFTAZIDIME BATSI], for which the inhibition constant (Ki) in assay [1] is 15 nM; in assay [2], 390 nM; in assay [3], 310 nM; in assay [4], 20 nM.
Take `CCN1CCN(C(=O)N[C@@H](C(=O)NCB(O)O)c2ccc(O)cc2)C(=O)C1=O` [CEFOPERAZONE BATSI]: the Ki in assay [5] stood at 17000 nM; in assay [3] it was 600 nM.
For the compound `CCN1CCN(C(=O)N[C@H](Cc2ccc(O)cc2)C(=O)NCB2OC(C)(C)C(C)(C)O2)C(=O)C1=O`, the affinity in assay [5], expressed as Ki, was 9800 nM.
